Measured values from ChEMBL document CHEMBL1201862, “PubChem BioAssay data set” (2004).
Active and inactive are the calls of the source. Rule as the data show it, for most assays here: actives have a measured EC50 and inactives only a lower limit.

What was measured:
[1] = Luminescence Cell-Based Dose Retest to Confirm Inhibitors of Cancer Stem Cells. [Related pubchem assays (depositor defined):AID2717, AID2721]; type: functional; conditions: Homo sapiens
HT-1080 = assay: cytotoxicity in HT1080 fibrosarcoma cells, cell-based, fluorescence readout (AID 620); type: functional; conditions: Homo sapiens
[2] = biological target: Luciferin 4-monooxygenase (Photinus pyralis, UniProt P08659); assay: Counter Screen for Luciferase-based Assay Positives. [Related pubchem assays: 620, 618, 411 ]
Chain of Luciferin 4-monooxygenase (P08659 whole entry): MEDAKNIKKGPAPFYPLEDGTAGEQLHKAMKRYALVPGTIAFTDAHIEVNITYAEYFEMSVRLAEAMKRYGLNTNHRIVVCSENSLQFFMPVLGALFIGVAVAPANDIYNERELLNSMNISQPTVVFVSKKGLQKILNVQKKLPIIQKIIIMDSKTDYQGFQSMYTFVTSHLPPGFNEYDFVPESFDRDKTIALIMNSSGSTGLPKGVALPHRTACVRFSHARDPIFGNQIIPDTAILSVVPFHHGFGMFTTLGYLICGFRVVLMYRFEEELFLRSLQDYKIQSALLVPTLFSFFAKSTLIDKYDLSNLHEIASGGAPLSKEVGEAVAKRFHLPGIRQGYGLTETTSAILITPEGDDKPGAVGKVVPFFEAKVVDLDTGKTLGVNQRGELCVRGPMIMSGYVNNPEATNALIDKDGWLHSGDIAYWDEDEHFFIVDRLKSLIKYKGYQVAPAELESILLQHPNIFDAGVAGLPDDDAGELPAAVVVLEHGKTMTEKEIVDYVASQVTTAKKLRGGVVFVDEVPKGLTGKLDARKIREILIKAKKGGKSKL

[3] = biological target: DNA damage-inducible transcript 3 protein (Mus musculus, UniProt P35639); type: functional, Cricetulus griseus
Chain of DNA damage-inducible transcript 3 protein (P35639 whole entry): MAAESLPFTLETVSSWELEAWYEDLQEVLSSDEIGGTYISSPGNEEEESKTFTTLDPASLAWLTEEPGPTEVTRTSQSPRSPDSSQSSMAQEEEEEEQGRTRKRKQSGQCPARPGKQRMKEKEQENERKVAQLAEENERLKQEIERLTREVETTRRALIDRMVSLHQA

[4] = growth suppression of PTEN-null colon cells, dose response, cell-based, HCT116 PTEN knockout (AID 1047); type: functional;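 also: HCT116 colon tumor cells with PTEN knocked out; cells exposed to compound for 60 hours before readout; potency for loss of cell viability measured by luminescence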
[5] = growth suppression of beta-catenin-knockout colon cells, dose response, cell-based, HCT116, human colon tumor (AID 1045); type: functional;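 also: HCT116 colon tumor cells with beta catenin knocked out; cells exposed to compound for 60 hours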
[6] = biological target: Peroxisome proliferator-activated receptor gamma/Nuclear receptor coactivator 1 (Homo sapiens, UniProt P37231); type: functional;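 also: agonist potency as compounds enhance coactivator SRC-1 recruitment to PPARgamma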
Chain of Peroxisome proliferator-activated receptor gamma/Nuclear receptor coactivator 1 (P37231 whole entry): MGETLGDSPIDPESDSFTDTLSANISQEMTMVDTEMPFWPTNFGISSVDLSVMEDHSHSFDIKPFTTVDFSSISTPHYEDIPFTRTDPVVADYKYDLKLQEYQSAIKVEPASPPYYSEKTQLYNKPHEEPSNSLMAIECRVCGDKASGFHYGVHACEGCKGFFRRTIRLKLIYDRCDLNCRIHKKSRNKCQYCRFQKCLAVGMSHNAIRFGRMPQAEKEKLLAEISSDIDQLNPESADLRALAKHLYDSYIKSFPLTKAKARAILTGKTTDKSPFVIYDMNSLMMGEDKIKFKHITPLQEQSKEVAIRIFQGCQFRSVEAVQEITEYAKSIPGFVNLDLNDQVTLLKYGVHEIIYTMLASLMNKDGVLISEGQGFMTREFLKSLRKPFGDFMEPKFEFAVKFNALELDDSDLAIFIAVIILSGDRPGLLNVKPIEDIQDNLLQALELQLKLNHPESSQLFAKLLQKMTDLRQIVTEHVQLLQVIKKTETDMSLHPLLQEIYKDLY
Chain of Peroxisome proliferator-activated receptor gamma/Nuclear receptor coactivator 1 (Q15788 whole entry, further chain): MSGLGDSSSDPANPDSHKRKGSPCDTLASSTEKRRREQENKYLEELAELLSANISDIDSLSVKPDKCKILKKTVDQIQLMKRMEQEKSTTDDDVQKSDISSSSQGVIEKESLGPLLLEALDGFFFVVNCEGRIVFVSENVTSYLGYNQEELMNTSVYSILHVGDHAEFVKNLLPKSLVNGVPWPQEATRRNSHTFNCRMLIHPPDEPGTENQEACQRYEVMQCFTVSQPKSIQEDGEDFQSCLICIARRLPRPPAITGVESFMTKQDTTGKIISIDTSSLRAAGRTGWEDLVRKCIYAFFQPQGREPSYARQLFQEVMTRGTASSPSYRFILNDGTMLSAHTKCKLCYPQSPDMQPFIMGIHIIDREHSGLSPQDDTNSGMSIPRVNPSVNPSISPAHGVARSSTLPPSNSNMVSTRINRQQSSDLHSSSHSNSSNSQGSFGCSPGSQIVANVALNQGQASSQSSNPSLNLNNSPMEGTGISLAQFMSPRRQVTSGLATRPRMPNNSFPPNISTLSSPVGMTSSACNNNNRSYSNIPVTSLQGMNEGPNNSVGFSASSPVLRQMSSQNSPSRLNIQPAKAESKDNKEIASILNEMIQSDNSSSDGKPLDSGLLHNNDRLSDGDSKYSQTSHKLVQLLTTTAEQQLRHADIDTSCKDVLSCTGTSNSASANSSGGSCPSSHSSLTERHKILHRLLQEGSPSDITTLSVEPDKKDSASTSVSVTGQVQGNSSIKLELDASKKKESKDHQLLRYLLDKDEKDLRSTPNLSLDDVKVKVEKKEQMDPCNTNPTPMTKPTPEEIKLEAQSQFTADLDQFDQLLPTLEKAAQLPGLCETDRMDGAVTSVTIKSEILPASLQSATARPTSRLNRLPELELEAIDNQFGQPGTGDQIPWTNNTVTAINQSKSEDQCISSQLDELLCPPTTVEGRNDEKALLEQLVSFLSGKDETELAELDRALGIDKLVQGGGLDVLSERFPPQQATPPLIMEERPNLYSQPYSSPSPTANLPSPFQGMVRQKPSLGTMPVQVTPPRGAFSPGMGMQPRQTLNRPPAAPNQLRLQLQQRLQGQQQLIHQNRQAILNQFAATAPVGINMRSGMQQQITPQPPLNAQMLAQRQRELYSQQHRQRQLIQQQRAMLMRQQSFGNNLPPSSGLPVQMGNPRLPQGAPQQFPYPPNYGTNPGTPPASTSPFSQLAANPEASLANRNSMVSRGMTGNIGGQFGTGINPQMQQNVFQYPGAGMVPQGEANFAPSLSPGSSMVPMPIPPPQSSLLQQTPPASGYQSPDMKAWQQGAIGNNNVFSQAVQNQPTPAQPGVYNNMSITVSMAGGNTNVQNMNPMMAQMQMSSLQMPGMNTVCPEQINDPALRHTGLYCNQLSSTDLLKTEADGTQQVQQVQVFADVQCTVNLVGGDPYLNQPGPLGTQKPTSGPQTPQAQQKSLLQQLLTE

[7] = biological target: Peroxisome proliferator-activated receptor gamma/Nuclear receptor coactivator 2 (Homo sapiens, UniProt P37231); type: functional;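 also: agonist potency for raising coactivator recruitment to the receptor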
[8] = biological target: Peroxisome proliferator-activated receptor gamma/Nuclear receptor coactivator 3 (Homo sapiens, UniProt P37231); type: functional;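 also: agonist potency for raising coactivator recruitment to the receptor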
Chain of Peroxisome proliferator-activated receptor gamma/Nuclear receptor coactivator 3 (P37231 whole entry): as the sequence (P37231 whole entry) above
Chain of Peroxisome proliferator-activated receptor gamma/Nuclear receptor coactivator 3 (Q9Y6Q9 whole entry, further chain): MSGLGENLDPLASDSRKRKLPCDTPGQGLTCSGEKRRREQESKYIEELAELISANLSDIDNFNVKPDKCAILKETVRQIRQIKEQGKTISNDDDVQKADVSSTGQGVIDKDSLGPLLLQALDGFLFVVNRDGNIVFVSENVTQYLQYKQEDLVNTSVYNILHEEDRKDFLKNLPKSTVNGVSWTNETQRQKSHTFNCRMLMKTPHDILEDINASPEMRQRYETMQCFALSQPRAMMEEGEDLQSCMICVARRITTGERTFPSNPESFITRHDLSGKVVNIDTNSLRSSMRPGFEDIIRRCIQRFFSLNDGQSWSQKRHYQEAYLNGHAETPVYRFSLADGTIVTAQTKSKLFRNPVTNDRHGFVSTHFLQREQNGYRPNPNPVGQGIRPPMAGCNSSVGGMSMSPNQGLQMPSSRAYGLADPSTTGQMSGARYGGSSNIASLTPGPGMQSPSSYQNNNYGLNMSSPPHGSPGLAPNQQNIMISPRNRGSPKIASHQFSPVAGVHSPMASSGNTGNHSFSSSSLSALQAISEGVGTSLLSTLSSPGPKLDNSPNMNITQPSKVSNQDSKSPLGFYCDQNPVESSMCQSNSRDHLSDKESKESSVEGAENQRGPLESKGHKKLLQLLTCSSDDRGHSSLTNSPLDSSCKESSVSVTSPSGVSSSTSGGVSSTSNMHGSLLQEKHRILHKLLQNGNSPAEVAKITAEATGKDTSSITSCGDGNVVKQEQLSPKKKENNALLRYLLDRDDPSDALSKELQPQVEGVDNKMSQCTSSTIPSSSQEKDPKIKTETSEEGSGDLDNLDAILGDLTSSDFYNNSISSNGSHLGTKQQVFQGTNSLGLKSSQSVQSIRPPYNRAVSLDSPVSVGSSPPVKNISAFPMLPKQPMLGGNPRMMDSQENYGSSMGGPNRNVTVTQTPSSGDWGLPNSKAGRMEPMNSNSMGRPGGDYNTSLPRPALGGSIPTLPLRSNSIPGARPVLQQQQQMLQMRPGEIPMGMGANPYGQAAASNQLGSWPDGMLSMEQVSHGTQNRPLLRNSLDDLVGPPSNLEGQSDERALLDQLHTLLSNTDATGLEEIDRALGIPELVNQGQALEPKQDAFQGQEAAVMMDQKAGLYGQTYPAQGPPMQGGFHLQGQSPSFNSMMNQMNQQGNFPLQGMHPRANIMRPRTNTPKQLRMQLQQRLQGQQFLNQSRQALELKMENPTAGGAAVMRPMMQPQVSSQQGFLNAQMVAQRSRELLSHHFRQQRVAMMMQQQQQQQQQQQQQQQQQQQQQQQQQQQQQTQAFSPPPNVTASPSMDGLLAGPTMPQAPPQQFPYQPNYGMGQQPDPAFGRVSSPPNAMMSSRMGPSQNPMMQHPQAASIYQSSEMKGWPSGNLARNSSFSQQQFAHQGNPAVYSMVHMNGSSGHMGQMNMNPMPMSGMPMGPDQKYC

[9] = Luminescence-based counterscreen assay for KLF5 inhibitors: dose response cell-based high throughput screening assay to identify cytotoxic compounds using the IEC-6 intestinal epithelial cell line. [Related pubchem assays: 1700 (Primary screen.), 1834 (Confirmation screen.), 1858 (Summary AID.), 1905 (Counterscreen.)]; type: functional
[10] = inhibitors of SNCA 5'UTR-driven translation, confirmation, luminescence, H4 neuroglioblastoma cells, dose confirmation (AID 2454); type: functional, cell-based;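 also: H4 neuroglioblastoma cells carrying an alpha-synuclein 5'UTR luciferase reporter; potency for inhibition of the luciferase signal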
cells = type: functional, cell-based
[11] = inhibitors of firefly luciferase expression or activity, dose response, H4 neuroglioma cells, luminescence (AID 1990); type: functional, cell-based
[12] = luciferase reporter signal reduction – luminescence, H4-C neuroglioblastoma cells, dose response (AID 2458); type: functional, cell-based;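 also: H4 neuroglioblastoma cells stably carrying a luciferase reporter gene fusion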
[13] = inhibitors of SNCA 5'UTR-driven reporter translation, confirmation, H4 neuroglioma cells, luminescence (AID 1988); type: functional, cell-based
INS1 = assay: beta cell apoptosis inhibitors, cytokine rescue, dose response, luminescence, retest (AID 449756); type: functional, cell-based; conditions: Rattus norvegicus;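 also: cell death triggered by IL-1 beta plus TNF-alpha plus IFN-gamma mixture; protective hits raise ATP signal compared with cytokine alone wells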
[14] = Luminescence Cell-Based Dose Response to Identify Activators of 5'UTR Stem-Loop Driven Prion Protein mRNA Translation in H4-C Neuroglioblastoma Cells. [Related pubchem assays: 1829 (Project Summary), 1814 (Primary HTS)]; type: functional
[15] = Luminescence Cell-Based Dose Confirmation HTS to Identify Activators of 5'UTR Stem-Loop Driven Alpha-Synuclein mRNA Translation in H4 Neuroglioblastoma Cells. [Related pubchem assays: 1829 (Project Summary), 1814 (Primary HTS)]; type: functional
[16] = Luminescence Cell-Based Dose Response to Identify Activators of Luciferase Translation or Activity in H4-C Neuroglioblastoma Cells. [Related pubchem assays: 1829 (Project Summary), 1814 (Primary HTS)]; type: functional
[17] = Luminescence Cell-Based Dose Confirmation to Identify Activators of 5'UTR Stem-Loop Driven Alpha-Synuclein mRNA Translation in H4 Neuroglioblastoma Cells. [Related pubchem assays: 1829 (Project Summary), 1814 (Primary HTS)]; type: functional
[18] = Luminescence Cell-Based Dose Response HTS to Identify Activators of Luciferase Translation or Activity in H4 […] Cells. [Related pubchem assays: 1829 (Project Summary), 1814 (Primary HTS)]; type: functional
[19] = biological target: T1, Calpain-2 catalytic subunit (Sus scrofa, UniProt P43367); assay: pig calpain II inhibitor potency, dose response, biochemical, fluorogenic peptide substrate (AID 1420); type: functional
T1 sequence (P43367 whole entry): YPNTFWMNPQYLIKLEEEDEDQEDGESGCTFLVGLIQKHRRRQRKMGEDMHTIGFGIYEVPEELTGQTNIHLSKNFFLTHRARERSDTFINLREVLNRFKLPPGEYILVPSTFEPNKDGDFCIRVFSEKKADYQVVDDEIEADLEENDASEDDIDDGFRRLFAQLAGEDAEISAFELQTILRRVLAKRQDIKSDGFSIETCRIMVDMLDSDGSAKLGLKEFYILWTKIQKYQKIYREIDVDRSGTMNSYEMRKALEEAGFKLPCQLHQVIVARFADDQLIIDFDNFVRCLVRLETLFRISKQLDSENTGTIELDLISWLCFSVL

H4 = assay: Luminescence Cell-Based Dose Response HTS to Identify Activators of 5'UTR Stem-Loop Driven Prion Protein mRNA Translation in H4 Neuroglioblastoma Cells. [Related pubchem assays: 1829 (Project Summary), 1814 (Primary HTS)]; type: functional; conditions: Homo sapiens
[20] = biological target: T2, Voltage-gated N-type calcium channel alpha-1B subunit/Amyloid beta A4 precursor protein-binding family A member 1 (Homo sapiens, UniProt Q00975+Q02410); type: protein assay
[21] = biological target: T2, Voltage-gated N-type calcium channel alpha-1B subunit/Amyloid beta A4 precursor protein-binding family A member 1; type: protein assay; remark: listed apart in the source

CCCCCCOc1ccc(CN2CCN(CCO)CC2)cc1
AC50 [1]: < 160 nM (active) | EC50 (HT-1080): > 50000 nM (not active) | EC50 [2]: 1740 nM (active)

COc1ccc(OC)c2sc(NC(=O)c3ccc(Cl)s3)nc12
Absolute IC50 (CHOP) [3]: 10000 nM | EC50 [4]: 11800 nM (active) | EC50 [5]: 9280 nM (active)

O=C(CSc1nnnn1Cc1ccccc1)NCC(=O)c1ccccc1
EC50 [6]: > 79400 nM (not active) | EC50 [7]: 45900 nM (not active) | EC50 [8]: 84700 nM (not active)

O=C(c1ccc(Cl)cc1)c1c[nH]c(C(=O)NNc2cccc(Cl)n2)c1
Absolute IC50 (CHOP) [3]: 10000 nM

Cc1ccc2nc(NC(=O)CCCc3nc4ccccc4s3)sc2c1
IC50 [9]: > 39800 nM (not active) | EC50 [10]: 1540 nM (active) | EC50 (cells): > 12000 nM (not active) | EC50 [11]: 499 nM (active) | EC50 [12]: 1600 nM (active) | EC50 [13]: < 100 nM (active)

Cc1ccc(NC2=C/C(=N/S(=O)(=O)c3cccs3)c3ccccc3C2=O)cc1C
AC50 (INS1): 1560 nM (active) | EC50 [14]: 348 nM (active) | EC50 [15]: 181 nM (active) | EC50 [16]: 430 nM (active) | EC50 [17]: 318 nM (active) | EC50 [18]: < 100 nM (active) | IC50 [19]: 22300 nM (not active) | EC50 (H4): < 100 nM (active)

Nc1c(-c2cccc(Cl)c2)cnc2c(-c3ccccc3)cnn12
EC50 [14]: 478 nM (active) | EC50 [16]: 1150 nM (active) | EC50 [17]: 321 nM (active) | EC50 [18]: < 100 nM (inconclusive) | EC50 (H4): 785 nM (active)

COc1ccc2nc(O)c(CN(C3CCCCC3)C(c3nnnn3Cc3ccco3)C(C)C)cc2c1 (centres undefined)
IC50 [20]: 25900 nM (active) | IC50 [21]: 3170 nM (active)

CCCn1c(NC(=O)c2ccc(Br)cc2)nc2ccccc21
EC50 [6]: 8960 nM (active) | EC50 [7]: 9790 nM (active) | EC50 [8]: 13600 nM (not active)
